Consider 3 substances from patent US20130196903A1 (priority 2010, published 2013).

For test [1], the system named is dengue virus. The note with it: dengue virus infectivity; cited from earlier work.
The subject of test [2] is wild-type (WT) strain of Measles Virus (MV). Kind of test: Antiviral activity against a wild-type strain of Measles Virus. It counts as cell-based. The method, then:
The antiviral activity of a cholesterol-derivatized inhibitors derived from the sequence of Human Parainfluenza virus type 3 (HPIV3) was tested against a wild-type (WT) strain of Measles Virus (MV).

In the case of “AWDFGSLGGVFTSIGKALHQVF (Dengue virus 2 (DV2)) [DV2^419-440]”, the antiviral activity result in test [1] is given as “very weak antiviral activity”. For the substance “Ac-VALDPIDISIVLNKAKSDLEESKEWIRRSNGKLDSIGSGSG-C(PEG4-Chol) (Ac-VALDPIDISIVLNKAKSDLEESKEWIRRSNGKLDSIGSGSG-{C(PEG4-cholesterol)})”, the “fold more potent than the underivatized peptide” value in test [2] amounted to 5 fold. As to “[(Ac-VALDPIDISIVLNKAKSDLEESKEWIRRSNGKLDSIGSGSG-C(Mal-PEG4)]2-Chol”, in test [2], the “fold more potent than the underivatized peptide” value came to 250 fold.
